Measured values from paper PMC6166661 (Neuropeptides, 2018).

Columns and labels:
[1] = tested on: isoproterenol-stimulated lipolysis; assay: Acute effect on isoproterenol-stimulated lipolysis; assay type: in vivo, rat; conditions: rats
[2] = tested on: C3aR1; conditions: ref Cianflone et al., 2003; Murray et al., 2000; cited from earlier work

| Compound | change of plasma palmitate concentration during infusion ([1]; constant i.v. infusion 30 ng•min^−1, vs basal) | plasma palmitate concentration at end of experiment, of the initial value ([1]; isoproterenol infusion plus saline bolus (control group)) | activity at C3aR1 [2] |
| --- | --- | --- | --- |
| CC(C)NCC(O)c1ccc(O)c(O)c1 (stereo not drawn) [isoproterenol] | more than doubled | ~ 75% |  |
| ASP: des-arginine peptide generated from C3a by cleaving the C-terminal arginine residue (R77) |  |  | inactive |
